# Laboratory results: patent US9586931B2 (Merck Sharp & Dohme Corp., priority 2012, dated 2017)
# Where “and” joins values, the source holds several entries; their conditions need not be identical. Identical values can stand only once.
# Target: T1, recombinant human GST-Syk (Homo sapiens, UniProt P43405)
# T1 construct: purchased Carna Biosciences 08-176
# Assay: Homogeneous Time-Resolved Fluorescence (HTRF) assay for the recombinant human Syk enzyme
# Format: biochemical
# Details: recombinant human GST-Syk 5 pM, ATP 25 μM, 10-dose titration 10 μM to 0.508 nM; read-out: rhSYK Activity IC50
# How it was run: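 Detection used time-resolved fluorescence 30 min after adding a quench mix (40 mM EDTA, 15 mM Tris pH 7.5, 0.01% Tween 20) containing 2 nM Europium anti-pTyr antibody and 70 nM streptavidin-APC. This followed 45 min of room-temperature peptide phosphorylation by recombinant GST-tagged human Syk.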
row,SMILES,IC50
1,"Cc1cc(Nc2cc(C(F)(F)F)ccn2)nc(-c2cn(C3CCNC(=O)CC3)nn2)c1 (racemic) [Example 11.1, 5-[4-(4-Methyl-6-{[4-(trifluoromethyl)pyridin-2-yl]amino}pyridin-2-yl)-1H-1,2,3-triazol-1-yl]azepan-2-one]",21.2 nM
2,"Cc1cc(Nc2cc(C(F)(F)F)ccn2)nc(-c2cn(-c3ncccc3Cl)nn2)c1 [Example 6.1, 6-(1-(3-Chloropyridin-2-yl)-1H-1,2,3-triazol-4-yl)-4-methyl-N-(4-(trifluoromethyl)pyridin-2-yl)pyridin-2-amine]",41 nM
3,"Cc1cc(Nc2cc(C(F)F)ccn2)nc(-c2cn(CC3(C)CNC(=O)O3)nn2)c1 (single isomer, unassigned) [Example 7.8, 5-((4-(6-((4-(difluoromethyl)pyridin-2-yl)amino)-4-methylpyridin-2-yl) 1H-1,2,3-triazol-1-yl)methyl)-5-methyloxazolidin-2-one]",1.9 nM
4,"Cc1cc(Nc2cc(C(F)(F)F)ccn2)nc(-c2cn(CC(O)C(C)(C)C)nn2)c1 (centres unmarked) [Example 4.25, 3,3-dimethyl-1-[4-(4-methyl-6-{[4-(trifluoromethyl)pyridin-2-yl]amino}pyridin-2-yl)-1H-1,2,3-triazol-1-yl]butan-2-ol]",12.1 nM
5,"Cc1cc(Nc2ncc(F)c(C(F)F)n2)cc(-c2cn(CC3OC(=O)NC3C)nn2)c1 (single isomer, unassigned) [Example 7.38, 5-{[4-(3-{[4-(difluoromethyl)-5-fluoropyrimidin-2-yl]amino}-5-methylphenyl)-1H-1,2,3-triazol-1-yl]methyl}-4-methyl-1,3-oxazolidin-2-one]",33.1 nM
6,"Cc1cc(Nc2nccc(C)n2)cc(-c2cn(C[C@](C)(O)CO)nn2)c1 (single isomer, unassigned) [Example 21.1, 2-Methyl-3-(4-(3-methyl-5-((4-methylpyrimidin-2-yl)amino)phenyl)-1H-1,2,3-triazol-1-yl)propane-1,2-diol]",6.2 nM
7,"Cc1cc(Nc2cc(C(F)F)ccn2)nc(-c2cn(CC3CNCCO3)nn2)c1 (single isomer, unassigned) [Example 26.2, N-(4-(difluoromethyl)pyridin-2-yl)-4-methyl-6-(1-(morpholin-2-ylmethyl)-1H-1,2,3-triazol-4-yl)pyridin-2-amine]",3.3 nM
8,"Cc1cc(Nc2ncc(Cl)c(C)n2)cc(-c2cn(CC(C)(O)C(C)(C)O)nn2)c1 (centres unmarked) [Example 21.30, 1-(4-{3-[(5-chloro-4-methylpyrimidin-2-yl)amino]-5-methylphenyl}-1H-1,2,3-triazol-1-yl)-2,3-dimethylbutane-2,3-diol]",88.5 nM
9,"COc1cc2c(cc1OC)CN(C(=O)C(C)n1cc(-c3cc(C)cc(Nc4cc(C(F)(F)F)ccn4)n3)nn1)C(C)C2 (centres unmarked) [Example 1.34, 6-{1-[2-(6,7-dimethoxy-3-methyl-3,4-dihydroisoquinolin-2(1H)-yl)-1-methyl-2-oxoethyl]-1H-1,2,3-triazol-4-yl}-4-methyl-N-[4-(trifluoromethyl)pyridin-2-yl]pyridin-2-amine]",2700 nM
10,"Cc1cc(Nc2cc(C(F)(F)F)ccn2)nc(-c2cn(CC(C)(O)CO)nn2)c1 (centres unmarked) [Example 10.15, 2-methyl-3-[4-(4-methyl-6-{[4-(trifluoromethyl)pyridin-2-yl]amino}pyridin-2-yl)-1H-1,2,3-triazol-1-yl]propane-1,2-diol]",7.2 nM
11,"Cc1cc(Nc2nccc(C(F)(F)F)n2)cc(-c2cn(CC(=O)N3COCC3(C)C)nn2)c1 [Example 5.68, N-(3-{1-[2-(4,4-dimethyl-1,3-oxazolidin-3-yl)-2-oxoethyl]-1H-1,2,3-triazol-4-yl}-5-methylphenyl)-4-(trifluoromethyl)pyrimidin-2-amine]",114 nM
12,"COCC(O)Cn1cc(-c2cc(C)cc(Nc3nccc(C(F)(F)F)n3)c2)nn1 (racemic) [Example 5.53, 1-methoxy-3-[4-(3-methyl-5-{[4-(trifluoromethyl)pyrimidin-2-yl]amino}phenyl)-1H-1,2,3-triazol-1-yl]propan-2-ol]",58.6 nM
13,"Cc1cc(Nc2nccc(C(F)(F)F)n2)cc(-c2cn(CC3CCO3)nn2)c1 (racemic) [Example 5.50, N-{3-methyl-5-[1-(oxetan-2-ylmethyl)-1H-1,2,3-triazol-4-yl]phenyl}-4-(trifluoromethyl)pyrimidin-2-amine]",504 nM
14,"Cc1cc(Nc2cc(C(F)(F)F)ccn2)nc(-c2cn(C(C)C(=O)O)nn2)c1 (racemic) [Example 5.43, 2-[4-(4-methyl-6-{[4-(trifluoromethyl)pyridin-2-yl]amino}pyridin-2-yl)-1H-1,2,3-triazol-1-yl]propanoic acid]",35.2 nM and 17 nM
15,"Cc1cc(Nc2nccc(C(F)F)n2)cc(-c2cn(C(C)C3CNC(=O)O3)nn2)c1 (single isomer, unassigned) [Example 7.2, 5-(1-(4-(3-((4-(Difluoromethyl)pyrimidin-2-yl)amino)-5-methylphenyl)-1H-1,2,3-triazol-1-yl)ethyl)oxazolidin-2-one]",3.3 nM
16,"CC(=O)N1CCN(C(=O)Cn2cc(-c3cc(C)cc(Nc4nccc(C(F)(F)F)n4)c3)nn2)CC1 [Example 5.59, N-(3-{1-[2-(4-acetylpiperazin-1-yl)-2-oxoethyl]-1H-1,2,3-triazol-4-yl}-5-methylphenyl)-4-(trifluoromethyl)pyrimidin-2-amine]",69.8 nM
17,"Cc1cc(Nc2cc(C(F)(F)F)ccn2)nc(-c2cn(C(C)C(=O)NCc3cc(-c4ccco4)on3)nn2)c1 (centres unmarked) [Example 1.37, N-[(5-furan-2-ylisoxazol-3-yl)methyl]-2-[4-(4-methyl-6-{[4-(trifluoromethyl)pyridin-2-yl]amino}pyridin-2-yl)-1H-1,2,3-triazol-1-yl]propanamide]",33.9 nM
18,"Cc1cc(Nc2cc(C(F)(F)F)ccn2)nc(-c2cn(CC(O)c3ccc(C(N)=O)cc3)nn2)c1 (centres unmarked) [Example 1.10, 4-{1-hydroxy-2-[4-(4-methyl-6-{[4-(trifluoromethyl)pyridin-2-yl]amino}pyridin-2-yl)-1H-1,2,3-triazol-1-yl]ethyl}benzamide]",6.3 nM
19,"CCC(O)(CC)Cn1cc(-c2cc(C)cc(Nc3cc(C(F)(F)F)ccn3)n2)nn1 [Example 4.31, 3-{[4-(4-methyl-6-{[4-(trifluoromethyl)pyridin-2-yl]amino}pyridin-2-yl)-1H-1,2,3-triazol-1-yl]methyl}pentan-3-ol]",8.1 nM
20,"CCC(O)Cn1cc(-c2cc(C)cc(Nc3cc(C(F)(F)F)ccn3)n2)nn1 (racemic) [Example 5.5, 1-[4-(4-methyl-6-{[4-(trifluoromethyl)pyridin-2-yl]amino}pyridin-2-yl)-1H-1,2,3-triazol-1-yl]butan-2-ol]",15.8 nM
21,"C/C=C/Cn1cc(-c2cc(C)cc(Nc3cc(C(F)(F)F)ccn3)n2)nn1 [Example 5.38, 6-{1-[(2E)-but-2-en-1-yl]-1H-1,2,3-triazol-4-yl}-4-methyl-N-[4-(trifluoromethyl)pyridin-2-yl]pyridin-2-amine]",17.8 nM
22,"Cc1cc(Nc2nccc(C(F)(F)F)n2)cc(-n2cc(C3(O)CCC(O)CC3)nn2)c1 (stereo not drawn) [Example 15.16, trans-1-[1-(3-methyl-5-{[4-(trifluoromethyl)pyrimidin-2-yl]amino}phenyl)-1H-1,2,3-triazol-4-yl]cyclohexane-1,4-diol]",117 nM
23,"Cc1cc(Nc2cc(C(F)(F)F)ccn2)nc(-c2cn(CC(O)C(C)O)nn2)c1 (centres unmarked) [Example 10.13, 1-[4-(4-methyl-6-{[4-(trifluoromethyl)pyridin-2-yl]amino}pyridin-2-yl)-1H-1,2,3-triazol-1-yl]butane-2,3-diol]",18.8 nM
